The results in this text go back to publication PMC10510324, “A Biomimetic C-Terminal Extension Strategy for Photocaging Amidated Neuropeptides” (Journal of the American Chemical Society, 2023).

The target of one experiment is T1, GRPR (Mus musculus, UniProt P21729).
T1 construct: from tissue; host or cells: acute mouse brain slices, VIP interneurons of primary motor cortex (VipCre; Ai14 mice)
Briefly: Whole-cell recording of membrane currents, VIP interneurons of motor cortex, acute brain slices. Format: cell-based. The source says:
(§1) Photoactivatable neuropeptides are powerful tools that can drive studies into the mechanisms of endogenous receptor signaling in acute brain slices.[3],[8],[40] To determine if NPP-caged peptides are compatible with such experiments, we established electrophysiological assays for measuring the activation of GRPR, OTR, NK1R, and CCK2R in acute brain slices taken from transgenic mice. These assays involved whole cell recordings of membrane currents from genetically defined neurons located in different brain regions where endogenous receptor activation produces inward, excitatory currents that facilitate action potential firing. Neuropeptide receptor-expressing cells were identified for fluorescence-guided, targeted electrophysiological recordings using transgenic mice that contain transgenes encoding Cre-recombinase under a promotor that is specific to the cell of interest, as well as a Cre-dependent tdTomato fluorescent protein via the Ai14 (Rosa26-lsl-tdTomato) reporter strain. […]
(§2) (A) Average inward currents over time after bath application of GRP(14-27)-NPP (3 μM, n = 5 cells from 4 mice) or GRP(14-27) (300 nM, n = 5 from 4 mice), recorded from fluorescently labeled VIP interneurons in layer 1 of the motor cortex. Data are expressed as the mean ± SEM. […] Data are expressed as the mean ± SEM. […] Data are expressed as the mean ± SEM. […] Data are expressed as the mean ± SEM. […]

The target of experiment [1] is T2, gastrin-releasing peptide receptor (GRPR) (Mus musculus, UniProt P21729).
T2 construct: host or cells: HEK293T
T2 sequence (P21729 whole entry): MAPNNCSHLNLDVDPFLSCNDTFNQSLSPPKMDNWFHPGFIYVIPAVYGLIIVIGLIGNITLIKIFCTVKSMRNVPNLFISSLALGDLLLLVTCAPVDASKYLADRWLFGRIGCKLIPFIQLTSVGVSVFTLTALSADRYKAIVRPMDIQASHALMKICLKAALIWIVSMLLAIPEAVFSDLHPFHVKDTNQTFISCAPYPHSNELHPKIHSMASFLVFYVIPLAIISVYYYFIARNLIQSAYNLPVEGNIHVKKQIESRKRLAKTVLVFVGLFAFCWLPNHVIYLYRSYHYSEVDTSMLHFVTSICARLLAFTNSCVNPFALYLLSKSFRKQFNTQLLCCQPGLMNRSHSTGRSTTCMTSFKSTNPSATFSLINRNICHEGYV
In words: GloSensor cAMP assay of GPCR activation, GRPR. The following applies: for EC50: GloSensor cAMP, n = 10 wells per data point. The experiment is classed as cell-based. From the text: To determine the effectiveness of the C-TEx caging strategy at attenuating peptide activity, we conducted a live-cell functional assay of GPCR activation in HEK293T cells transfected to express the primary receptors for each neuropeptide. The GloSensor assay reports changes in cyclic adenosine monophosphate (cAMP) signaling as a function of GPCR activation. […] To adapt this cAMP assay to report the activation of Gq-coupled GPCRs, we coexpressed a chimeric Gαs/Gαq protein (sq5) that allows Gq-coupled GPCRs to strongly engage the Gs pathway to elevate cAMP via activation of adenylyl cyclase.[39]
Figure 3 In vitro characterization of NPP-caged neuropeptides using a functional assay of G protein signaling. (A) Dose–response curves at the gastrin-releasing peptide receptor (GRPR) using a GloSensor assay of cAMP signaling in HEK293T cells (n = 10 wells per data point). Data were normalized to the maximal response to GRP(14-27) (300 nM) and are expressed as the mean ± SEM.
Reagent type (species) Designation Source or Identifiers
GRPR plasmid mGRPR Genscript Clone ID OMu14220D
OTR plasmid hOXR cdna.org Cat # OXTR000000
CCK1R hCCK1R cdna.org Cat # CCKAR00000
CCK2R plasmid hCCK2R cdna.org Cat # CCKBR00000
NK1R plasmid hNK1R cdna.org Cat # TACR100000
HEK293T cells ATCC.org Cat # CRL-3216
GloSensor plasmid pGloSensor - Promega Cat # E2301
GloSensor reagent cAMP Reagent Promega Product # E1291
VIP-IRES-CRE, C57Bl/6J The Jackson background (M. musculus, VipCre Laboratory Cat # 010908
Ai14, C57Bl/6J Rosa26-lsl- The Jackson background (M. musculus, tdTomato (Ai14) Laboratory Cat # 007914 […]
C57Bl/6J background (M. ChatCre The Jackson Cat # 006410 musculus, male and Laboratory
Pvalb-IRES-Cre, C57Bl/6J The Jackson background (M. musculus, PvalbCre Cat # 017320 male and female) Laboratory […]
parent peptide. […] The solutions were illuminated in 15 sec periods, after which samples were removed and analyzed by LC-MS using a linear gradient (water/MeCN 5%/95% → MeCN 100%, 0-8 min with 0.1% formic acid) and a C-18 column (4.6 × 50 mm, 1.8 μm) (Agilent). Each compound was assessed in triplicate. […]

For another experiment, the target named is T3, OTR (Mus musculus, UniProt P97926).
T3 construct: from tissue; host or cells: acute mouse brain slices, PV interneurons of hippocampal CA1 and CA2 (PvalbCre; Ai14 mice)
T3 sequence (P97926 1-388): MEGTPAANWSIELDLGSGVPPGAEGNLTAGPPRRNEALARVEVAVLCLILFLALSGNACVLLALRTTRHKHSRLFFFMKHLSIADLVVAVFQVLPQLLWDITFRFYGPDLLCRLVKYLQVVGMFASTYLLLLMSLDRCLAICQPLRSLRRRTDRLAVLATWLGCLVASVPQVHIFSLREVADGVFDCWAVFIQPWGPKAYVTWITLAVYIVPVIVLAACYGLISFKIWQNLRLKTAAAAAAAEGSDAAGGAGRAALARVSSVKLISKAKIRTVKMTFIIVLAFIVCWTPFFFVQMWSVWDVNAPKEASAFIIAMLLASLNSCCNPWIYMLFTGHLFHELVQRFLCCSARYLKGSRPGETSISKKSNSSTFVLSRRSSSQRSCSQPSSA
In words: Whole-cell recording of membrane currents, PV interneurons of hippocampal CA1 and CA2, acute brain slices. The experiment is classed as cell-based.
Excerpt: as §1, §2

Another experiment addresses T4, NK1R (Mus musculus, UniProt P30548).
T4 construct: from tissue; host or cells: acute mouse brain slices, cholinergic interneurons of dorsal striatum (ChatCre; Ai14 mice)
Briefly: Whole-cell recording of membrane currents, striatal cholinergic interneurons, acute brain slices. Format: cell-based. From the text:
Photoactivatable neuropeptides are powerful tools that can drive studies into the mechanisms of endogenous receptor signaling in acute brain slices.[3],[8],[40] To determine if NPP-caged peptides are compatible with such experiments, we established electrophysiological assays for measuring the activation of GRPR, OTR, NK1R, and CCK2R in acute brain slices taken from transgenic mice. These assays involved whole cell recordings of membrane currents from genetically defined neurons located in different brain regions where endogenous receptor activation produces inward, excitatory currents that facilitate action potential firing. Neuropeptide receptor-expressing cells were identified for fluorescence-guided, targeted electrophysiological recordings using transgenic mice that contain transgenes encoding Cre-recombinase under a promotor that is specific to the cell of interest, as well as a Cre-dependent tdTomato fluorescent protein via the Ai14 (Rosa26-lsl-tdTomato) reporter strain.
Our experimental framework for evaluating NPP-caged peptides in brain slices is as follows. To assess residual activity, we compared the membrane currents evoked by bath application of the parent peptide and NPP-caged peptide. To evaluate photoactivation, we compared the peak current evoked by a single, high-intensity (20–200 ms, 50–80 mW) light flash from either a 355 nm laser or 365 nm LED, to the current evoked by bath application of the parent peptide, the NPP-caged peptide without light, and NPP-peptide photoactivation in the presence of a receptor antagonist.
(A) Average inward currents over time after bath application of GRP(14-27)-NPP (3 μM, n = 5 cells from 4 mice) or GRP(14-27) (300 nM, n = 5 from 4 mice), recorded from fluorescently labeled VIP interneurons in layer 1 of the motor cortex. Data are expressed as the mean ± SEM. (B) Average inward currents evoked by photoactivation of GRP(14-27)-NPP (3 μM) with an […] light flash in the absence (green, n = 10 cells from 4 mice) and presence of the GRPR antagonist BW1023U90 (1 μM) (black, n = 6 cells from 2 mice). […] Data are expressed as the mean ± SEM. […] Data are expressed as the mean ± SEM. […] Data are expressed as the mean ± SEM. […] Data are expressed as the mean ± SEM.
Brain slice preparation. All procedures were performed in accordance with protocols approved by the University of California San Diego Institutional Animal Care and Use Committee (IACUC) following guidelines described in the US National Institutes of Health Guide for Care and Use of Laboratory Animals (UCSD IACUC protocol S16171). Experiments were conducted using mice of both sexes and the data were combined. From Vip Cre; Rosa26-lsl-tdTomato (Ai14), mouse age ranged from P15-30. From Pvalb Cre; Rosa26-lsl-tdTomato (Ai14), mouse age ranged from P20-35. From Chat Cre; Rosa26-lsl-tdTomato (Ai14), mouse age ranged from P40-100. Mice were anesthetized with isoﬂurane and decapitated, and the brain was removed, blocked, and mounted in a VT1000S vibratome (Leica Instruments). For recordings from cortex and striatum, coronal slices (300 μm) were prepared, and for hippocampus, horizontal slices

In experiment [2] the target is gastrin-releasing peptide receptor (UniProt P30550).
gastrin-releasing peptide receptor, sequence (P30550 whole entry): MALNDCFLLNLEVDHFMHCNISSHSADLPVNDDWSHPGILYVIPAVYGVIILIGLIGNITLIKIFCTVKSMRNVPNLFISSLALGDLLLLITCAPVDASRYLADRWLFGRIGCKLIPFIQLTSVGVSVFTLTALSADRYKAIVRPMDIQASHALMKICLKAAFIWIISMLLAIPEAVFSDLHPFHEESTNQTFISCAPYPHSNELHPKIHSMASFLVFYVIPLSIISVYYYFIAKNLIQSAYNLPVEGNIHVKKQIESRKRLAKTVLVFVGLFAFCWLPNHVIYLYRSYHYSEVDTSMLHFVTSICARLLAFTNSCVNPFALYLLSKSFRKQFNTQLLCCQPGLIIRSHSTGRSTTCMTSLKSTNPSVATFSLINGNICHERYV

Starred links: 1 amine or outer side, 2 acyl side, 3 side chain; linkers in the order of their positions; H or OH if unused. Non-standard residues stand in square brackets, D forms with d. Residues, ends and D or L forms follow the SMILES beside them. No end group written: not given here. X1 = COc1cc(C(CC(=O)[*:2])N[*:1])c([N+](=O)[O-])cc1OC; DMNBA = dimethoxynitrobenzyl beta-alanine, racemic

T4 sequence (P30548 whole entry): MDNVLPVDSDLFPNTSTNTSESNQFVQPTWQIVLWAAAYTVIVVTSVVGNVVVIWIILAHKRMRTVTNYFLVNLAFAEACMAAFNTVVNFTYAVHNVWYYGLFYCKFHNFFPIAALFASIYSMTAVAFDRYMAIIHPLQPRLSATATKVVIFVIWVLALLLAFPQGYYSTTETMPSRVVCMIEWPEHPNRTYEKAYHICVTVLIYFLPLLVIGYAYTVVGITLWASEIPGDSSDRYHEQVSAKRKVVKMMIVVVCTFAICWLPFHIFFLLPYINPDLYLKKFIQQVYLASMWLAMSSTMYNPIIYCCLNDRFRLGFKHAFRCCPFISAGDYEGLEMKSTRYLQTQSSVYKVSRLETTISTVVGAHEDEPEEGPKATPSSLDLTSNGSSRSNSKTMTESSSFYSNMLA
T1 sequence (P21729 whole entry): as the sequence (P21729 whole entry) above

Turning to “3-Phenylpropanoyl-His-Trp-Ala-Val-D-Ala-His-D-Pro-CH2NH-Phe-NH2 [BW1023U90]”, the “block of light-evoked GRP(14-27)-NPP current” value at GRPR (antagonist 1 μM) is “completely blocked”. In experiment [1] (HEK293T cells coexpressing chimeric Gαs/Gαq (sq5), normalized to GRP(14-27) 300 nM), `CSCC[C@H](NC(=O)[C@H](CC(C)C)NC(=O)[C@H](Cc1c[nH]cn1)NC(=O)CNC(=O)[C@@H](NC(=O)[C@H](C)NC(=O)[C@H](Cc1c[nH]c2ccccc12)NC(=O)[C@H](Cc1c[nH]cn1)NC(=O)[C@H](CC(N)=O)NC(=O)CNC(=O)[C@H](CCCNC(=N)N)NC(=O)[C@@H]1CCCN1C(=O)[C@H](Cc1ccc(O)cc1)NC(=O)[C@@H](N)CCSC)C(C)C)C(N)=O` [GRP(14-27), Gastrin-releasing peptide (14-27)] displayed an EC50 of 0.0006 µM. Also, on GRPR (300 nM, n = 5 cells from 4 mice, held at −55 mV, mean ± SEM), the “peak current amplitude, bath application” value is given as −62.8 ± 12.8. `COc1cc(C(CC(=O)N[C@@H](CCCNC(=N)N)C(=O)N[C@@H](CCCCN)C(=O)N2CCC[C@H]2C(=O)N[C@@H](CCC(=O)O)C(=O)N[C@@H](CCCCN)C(=O)O)NC(=O)[C@H](CCSC)NC(=O)[C@H](CC(C)C)NC(=O)[C@H](Cc2c[nH]cn2)NC(=O)CNC(=O)[C@@H](NC(=O)[C@H](C)NC(=O)[C@H](Cc2c[nH]c3ccccc23)NC(=O)[C@H](Cc2c[nH]cn2)NC(=O)[C@H](CC(N)=O)NC(=O)CNC(=O)[C@H](CCCNC(=N)N)NC(=O)[C@@H]2CCCN2C(=O)[C@H](Cc2ccc(O)cc2)NC(=O)[C@@H](N)CCSC)C(C)C)c([N+](=O)[O-])cc1OC` (stereo partly drawn) [GRP(14-27)-NPP] (H-MYPRGNHWAVGHLM[X1]RKPEK-OH) came in with an EC50 in experiment [1] (HEK293T cells coexpressing sq5, no light) of 6.1 µM. The “reduction of EC50 (potency) at the GRPR by NPP-caging” value in experiment [1] (caged versus parent peptide) is ~10,000 fold.

Consider `CC[C@H](C)[C@@H]1NC(=O)[C@H](Cc2ccc(O)cc2)NC(=O)[C@@H](N)CSSC[C@@H](C(=O)N2CCC[C@H]2C(=O)N[C@@H](CC(C)C)C(=O)NCC(N)=O)NC(=O)[C@H](CC(N)=O)NC(=O)[C@H](CCC(N)=O)NC1=O` [OT, Oxytocin], for which the “peak current amplitude, bath application” value on OTR (300 nM, n = 7 from 4 mice, held at -70 mV, mean ± SEM) is given as −35.8 ± 5.7. In the case of `COc1ccccc1CC(=N)N1C[C@@H]2C(=O)CCC(c3ccccc3)(c3ccccc3)[C@@H]2C1` [RP67580, (3aR,7aR)-Octahydro-2-[1-imino-2-(2-methoxyphenyl)ethyl]-7,7-diphenyl-4H-isoindol], the “block of light-evoked SP-NPP current” value at NK1R (antagonist 10 μM) is “largely blocked”. Turning to “(d(CH2)5^1,Tyr(Me)^2,Thr^4,Orn^8,des-Gly-NH2^9)-Vasotocin [OTA]”, the “block of light-evoked OT-NPP current” value at OTR (antagonist 1 μM) is recorded as “blocked”. For SP-NPP: NPP-caged substance P, the “peak current amplitude, bath application without light” value in the experiment with NK1R (1 μM, 1:1 mixture of diastereomers, n = 6 cells from 5 mice, mean ± SEM) was −5.2 ± 13.6. The “peak current amplitude, photoactivation (+ UV)” value with NK1R (1 μM, 1 × 20 ms, 84 mW, 365 nm LED, n = 5 cells from 5 mice, mean ± SEM) is −265.5 ± 19.7. The “activity on bath application without light” value with NK1R (3 μM as printed in the text, 1:1 mixture of diastereomers) is “inactive”. For the same molecule, in the experiment with NK1R (1 × 20 ms, 84 mW, 365 nm LED), the “τon of light-evoked current” value turned out to be 1.1 s. Moreover, in the experiment with NK1R (1 × 20 ms, 84 mW, 365 nm LED, biphasic decay), the “τoff slow of light-evoked current” value was found to be 19.5 s. In the case of MYPRGNHWAVGHLM-NH2 [gastrin-releasing peptide (14-27)], the EC50 of receptor activation, GloSensor cAMP assay in HEK293T cells co-expressing the chimeric Gαs/Gαq protein sq5 in experiment [2] is 0.0006 µM. In experiment [2], MYPRGNHWAVGHLM[DMNBA]RKPEK (also: DMNBA racemic, diastereomers not resolved) [GRP(14-27)-NPP] gave an EC50 of receptor activation, GloSensor cAMP assay in HEK293T cells co-expressing the chimeric Gαs/Gαq protein sq5 of 6.1 µM.
